# Test results taken from US20160222014A1, “COMPOUNDS FOR REGULATING FAK AND/OR SRC PATHWAYS” (ASANA BIOSCIENCES, LLC, priority 2013, published 2016).
# Tests used:
# Assay type in all cases: biochemical
# Recombinant Src enzyme = target: T1, Recombinant Src enzyme (Homo sapiens, UniProt P12931); assay: Src HTRF assay
# T1 construct: purchased Millipore 14-326; host or cells: Sf21 insect cells
# Description: Enzyme assay buffer, supplements, and compounds were prepared as described in the FAK HTRF assay.
# Recombinant Src enzyme expressed in Sf21 insect cells was obtained (Millipore, Cat No. 14-326, Lot # D8CN006U-K). A 35 μM stock was used at a final concentration of 5 nM in the assay.
# Tyk2 synthetic peptide-Biotinylated-N-terminal tag-[…]
# A custom made substrate, a Tyk2 synthetic peptide, biotinylated with an N-terminal tag was obtained (Biopeptide and Sigma, Cat. No. 14918001 VC80021). A 100 μM stock was used at a final concentration of 0.5 μM in the assay.
# A 10 mM stock in 100 μL enzyme assay buffer pH7.4 was prepared freshly and used at a final concentration of 10 μM in the assay.
# Dasatinib (Bristol-Myers Squibb)
# The assay procedure was the same as discussed above.
# recombinant human FAK1 = target: T2, recombinant human FAK1 (Homo sapiens, UniProt Q05397); assay: FAK1 HTRF assay
# T2 construct: fused on or other part: N-terminal 6xHis tag
# T2 sequence (Q05397 422-680 limits assumed): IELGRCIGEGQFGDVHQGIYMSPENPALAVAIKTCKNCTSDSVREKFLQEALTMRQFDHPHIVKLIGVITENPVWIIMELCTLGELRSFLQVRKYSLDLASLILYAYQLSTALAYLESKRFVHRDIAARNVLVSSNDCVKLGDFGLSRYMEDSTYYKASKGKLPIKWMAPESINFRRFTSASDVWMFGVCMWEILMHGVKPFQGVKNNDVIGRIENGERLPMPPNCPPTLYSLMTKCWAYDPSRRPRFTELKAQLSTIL
# In short: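 IC50 values derive from HTRF % inhibition (ratio 665/620 nm, Eu–anti-phosphotyrosine 0.1 nM, SA-APC 12 nM). The kinase step ran 45 min at room temperature, pairing 10 nM His-FAK1(692–end) from baculovirus with 0.5 μM gastrin Tyr87 biotin-peptide and a reagent at 10 μM final, pH 7.4. Compound dilutions began at 10 μM.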
# AURKB (Aurora B) enzyme = target: T3, AURKB (Aurora B) enzyme (Homo sapiens, UniProt Q96GD4); assay: Aurora B HTRF assay; details: read-out: AuroraB IC50
# T3 construct: purchased Invitrogen PVR 130
# T3 sequence (Q96GD4 whole entry): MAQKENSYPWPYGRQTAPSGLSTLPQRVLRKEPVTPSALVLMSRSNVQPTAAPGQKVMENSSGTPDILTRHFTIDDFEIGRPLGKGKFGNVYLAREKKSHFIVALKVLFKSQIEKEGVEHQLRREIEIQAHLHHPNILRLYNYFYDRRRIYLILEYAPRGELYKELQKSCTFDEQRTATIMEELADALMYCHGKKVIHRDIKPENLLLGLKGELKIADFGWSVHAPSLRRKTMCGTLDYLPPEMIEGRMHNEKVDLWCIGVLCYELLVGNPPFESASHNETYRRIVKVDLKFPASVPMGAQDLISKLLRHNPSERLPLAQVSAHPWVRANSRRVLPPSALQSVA
# Description: AURKB (Aurora B) enzyme was obtained (Invitrogen, Cat No. PVR 130, Lot No. 857013J). A 8.64 μM stock was used at a final concentration 5 nM in the assay.
# Lance@Ultera Ulight-PLK (Ser137) peptide substrate
# Peptide substrate was obtained from Perkin Elmer (Lot#1629793, TRF0110-M). A 5 μM stock was used at a final concentration of 50 nM in the assay.
# 10 mM stock prepared freshly as above, used at a final concentration of 30 μM in assay.
# The plate was covered with aluminum foil, put on a shaker and incubated 1 h at rt.
# Reference: Pfizer aurora inhibitor PF-03814735 was procured from Selleckchem: Cat# S2725
# Using stock Lance detection buffer, 1× Lance detection buffer was prepared. • 1. 10× lance detection buffer was diluted to 1×, mixed well and 100 μL was removed, and was used to substitute with antibody and EDTA (for a total of 2200 μL). • 2. 88 μL of […] EDTA was added from 500 mM stock. • 3. 14 μL Europium labeled antibody (LANCE@ Ultra EU-Anti-P-PLK(Ser 137), TRF0203-D, Lot No. 1630351, Perkin Elmer) was added from 625 nM stock; required concentration was 2 nM in the assay. • 4. The buffer well was mixed and 20 μL was transferred to the each well in the assay plate. • 5. The solutions were incubated for 1 h at rt. • 6. The plate was read using MET-HTRF® protocol using Pherastar equipment.
# T1 sequence (P12931 whole entry): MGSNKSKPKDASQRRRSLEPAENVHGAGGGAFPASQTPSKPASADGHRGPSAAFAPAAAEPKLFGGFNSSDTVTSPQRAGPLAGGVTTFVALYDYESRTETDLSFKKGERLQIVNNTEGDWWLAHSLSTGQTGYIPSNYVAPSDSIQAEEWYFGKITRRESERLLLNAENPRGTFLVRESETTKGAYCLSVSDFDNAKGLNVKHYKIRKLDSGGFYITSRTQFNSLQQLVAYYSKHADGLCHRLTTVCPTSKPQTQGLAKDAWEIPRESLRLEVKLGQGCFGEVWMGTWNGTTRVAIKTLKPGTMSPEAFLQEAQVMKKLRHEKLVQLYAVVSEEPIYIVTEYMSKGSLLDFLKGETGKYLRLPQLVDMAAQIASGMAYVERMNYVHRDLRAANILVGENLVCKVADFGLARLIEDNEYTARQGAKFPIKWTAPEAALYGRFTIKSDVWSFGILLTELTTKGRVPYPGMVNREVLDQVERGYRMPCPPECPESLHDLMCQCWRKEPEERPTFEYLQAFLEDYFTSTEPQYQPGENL
IC50 (Recombinant Src enzyme) [µM],IC50 (recombinant human FAK1) [µM],IC50 (AURKB (Aurora B) enzyme) [µM],SMILES
> 1,,,CC(c1ccccc1N(C)S(C)(=O)=O)n1ccc2cnc(Nc3ccc(N4CCN[C@H](C)C4)cc3)nc21 (some centres unmarked) [Example 779]
> 1,,,C[C@H]1CN(c2ccc(Nc3cc4c(ccn4Cc4cccnc4N(C)S(C)(=O)=O)cn3)cc2)CCN1 [Example 616]
> 1,,,C[C@H]1CN(c2ccc(Nc3ncc4ccn(Cc5ccccc5N(C)S(C)(=O)=O)c4n3)nc2)CCN1 [Example 565]
> 1,,,C[C@H]1CN(c2ccc(Nc3ncc4ccn(Cc5ccc(C#N)cc5N(C)S(C)(=O)=O)c4n3)cc2)CCN1 [Example 685]
> 1,,,CN(c1ccccc1Cn1cc(C#N)c2cnc(Nc3ccc(N4CCNCC4)cc3)nc21)S(C)(=O)=O [Example 731]
> 1,,,Cc1cn(Cc2cccnc2N(C)S(C)(=O)=O)c2nc(Nc3ccc(N4CCNCC4)cc3)ncc12 [Example 719]
> 1,,,CC1(C)CN(S(=O)(=O)c2cccc3ccccc23)c2nc(Nc3ccc(N4CCNCC4)cc3)ncc21 [Example 760]
,< 0.02,< 0.02,C[C@@H]1CNCCN1c1ccc(Nc2ncc3ccn(S(=O)(=O)c4cccc5cccnc45)c3n2)cc1 [Example 490]
> 1,,,C[C@H]1CNCCN1c1ccc(Nc2cc3c(ccn3S(=O)(=O)c3ccccc3C#N)cn2)cc1 [Example 477]
,< 0.02,< 0.02,Cc1ccc(N(C)S(C)(=O)=O)c(Cn2ccc3cnc(Nc4ccc(N5CCC(N(C)C)CC5)c(C)c4)nc32)c1 [Example 780]
> 1,,,CN(C)C1CCN(c2ccc(Nc3ncc4ccn(Cc5ccc(C#N)cc5N(C)S(C)(=O)=O)c4n3)cc2)CC1 [Example 689]
,< 0.02,< 0.02,C[C@@H]1CNCCN1c1ccc(Nc2cc3c(ccn3S(=O)(=O)c3cccc4cccnc34)cn2)cc1 [Example 480]
> 1,,,CC1(C)CN(S(=O)(=O)c2cccc3cccnc23)c2nc(Nc3ccc(NC4CCNCC4)cc3)ncc21 [Example 673]
,< 0.02,< 0.02,CS(=O)(=O)Nc1ccccc1Cn1ccc2cnc(Nc3ccc4c(c3)OCC(=O)N4)nc21 [Example 618]
,< 0.02,< 0.02,CN1CCC(NC(=O)c2ccc(Nc3ncc4ccn(Cc5ccccc5N(C)S(C)(=O)=O)c4n3)cc2)CC1 [Example 777]
,< 0.02,< 0.02,C[C@H]1CN(c2ccc(Nc3cc4c(ccn4S(=O)(=O)c4ccccc4C#N)cn3)cc2)CCN1 [Example 472]
,< 0.02,< 0.02,CN(C)C1CCN(c2ccc(Nc3ncc4ccn(S(=O)(=O)c5cccc6cccnc56)c4n3)cc2)CC1 [Example 462]
,< 0.02,< 0.02,CN(c1ccccc1Cn1ccc2cnc(Nc3ccc(N4CCNC(C)(C)C4)cc3)nc21)S(C)(=O)=O [Example 606]
,< 0.02,< 0.02,O=S(=O)(c1cccc2cccnc12)n1ccc2cnc(Nc3ccc(N4CCC(CO)CC4)cc3)nc21 [Example 440]
,< 0.02,< 0.02,CN(C)C1CCN(c2ccc(Nc3cc4c(ccn4S(=O)(=O)c4ccccc4C#N)cn3)cc2)CC1 [Example 485]
,< 0.02,< 0.02,C[C@H]1CNCCN1c1ccc(Nc2cc3c(ccn3S(=O)(=O)c3cccc4cccnc34)cn2)cc1 [Example 478]
,< 0.02,< 0.02,COc1ccc(N(C)S(C)(=O)=O)c(Cn2ccc3cnc(Nc4ccc(N5CCN[C@@H](C)C5)cc4)nc32)c1 [Example 675]
,< 0.02,< 0.02,CN(c1ccccc1Cn1ccc2cnc(Nc3ccc(N4CCN(CC(=O)O)CC4)cc3)nc21)S(C)(=O)=O [Example 662]

# Further lines, the molecule ahead of its results:
SMILES,IC50 (Recombinant Src enzyme) [µM],IC50 (recombinant human FAK1) [µM],IC50 (AURKB (Aurora B) enzyme) [µM]
O=S(=O)(c1ccccc1OC(F)(F)F)n1ccc2cnc(Nc3ccc(N4CCOCC4)cc3)nc21 [Example 112],> 1,,
CC(=O)Nc1ccc(S(=O)(=O)n2ccc3cnc(Nc4ccc5c(c4)CCC(=O)N5)nc32)cc1 [Example 192],> 1,,
O=S(=O)(c1ccc2ncsc2c1)n1ccc2cnc(Nc3ccc(N4CCNCC4)cc3)nc21 [Example 234],> 1,,
CC(=O)Nc1cccc(Nc2ncc3ccn(S(=O)(=O)c4cccc(OC(F)(F)F)c4)c3n2)c1 [Example 40],> 1,,
Cc1ccnc2c(S(=O)(=O)n3ccc4cnc(Nc5ccc(N6CCC(O)CC6)cc5)nc43)cccc12 [Example 402],> 1,,
COc1cc(Nc2cc3c(ccn3Cc3cccnc3N(C)S(C)(=O)=O)cn2)ccc1N1CCNCC1 [Example 364],> 1,,
CC(=O)Nc1cccc(Nc2ncc3ccn(S(=O)(=O)c4ccc(C)cc4)c3n2)c1 [Example 39],> 1,,
CN(c1ncccc1Cn1ccc2cnc(Nc3cccc(-c4nnn[nH]4)c3)nc21)S(C)(=O)=O [Example 188],> 1,,
CN(c1cccc(Cn2ccc3cnc(Nc4ccc5c(c4)CCC(=O)N5)nc32)n1)S(C)(=O)=O [Example 141],> 1,,
"O=S(=O)(c1cccc2cccnc12)n1ncc2cnc(Nc3ccc(N4CCNCC4)cc3)nc21 [Example 231, N-(4-(piperazin-1-yl)phenyl)-1-(quinolin-8-ylsulfonyl)-1H-pyrazolo[3,4-d]pyrimidin-6-amine]",,< 0.02,< 0.02
CN(c1ncccc1Cn1ccc2cnc(Nc3ccc(N4CCC(O)CC4)cc3)cc21)S(C)(=O)=O [Example 384],> 1,,
Cc1ccccc1Nc1ncc2ccn(Cc3cccnc3N(C)S(C)(=O)=O)c2n1 [Example 148],> 1,,
CN1CC2CC1CN2c1ccc(Nc2ncc3ccn(S(=O)(=O)c4cccc5cccnc45)c3n2)cc1 (centres unmarked) [Example 410],,< 0.02,< 0.02
COc1cc(N2CCNCC2)ccc1Nc1cc2c(ccn2S(=O)(=O)c2cccc3ccc(C)nc23)cn1 [Example 382],> 1,,
CN(c1ccccc1Cn1ccc2cnc(Nc3ccc(N4CCN(CCO)CC4)cc3)nc21)S(C)(=O)=O [Example 423],,< 0.02,< 0.02
CC(=O)Nc1ccc(Nc2cc3c(ccn3Cc3ccccc3OC(F)F)cn2)cc1 [Example 97],> 1,,

SMILES,IC50 (Recombinant Src enzyme) [µM],IC50 (recombinant human FAK1) [µM],IC50 (AURKB (Aurora B) enzyme) [µM]
O=S(=O)(c1cccc2cccnc12)n1ccc2cnc(Nc3ccc4ncsc4c3)nc21 [Example 381],,< 0.02,< 0.02
O=C1CCc2cc(Nc3ncc4ccn(S(=O)(=O)c5ccc6ncsc6c5)c4n3)ccc2N1 [Example 226],> 1,,
COc1ccccc1S(=O)(=O)n1ccc2cnc(Nc3cccnc3)nc21 [Example 143],> 1,,
O=S(=O)(c1cccc2cccnc12)n1ccc2cnc(Nc3ccc(N4CCC(O)CC4)cc3)cc21 [Example 346],,< 0.02,< 0.02
CC(=O)Nc1cccc(Nc2cc3c(ccn3Cc3ccccc3OC(F)F)cn2)c1 [Example 98],> 1,,
CN(c1ncccc1Cn1ccc2cnc(Nc3ccc4c(c3)OCC(=O)N4)nc21)S(C)(=O)=O [Example 218],,< 0.02,< 0.02
O=S(=O)(c1cccc2cccnc12)n1ccc2cnc(Nc3ccc(N4CCNCC4)cc3CO)cc21 [Example 361],> 1,,
CN(c1ncccc1Cn1ccc2cnc(Nc3c(F)cccc3F)nc21)S(C)(=O)=O [Example 167],> 1,,
N#Cc1ccccc1S(=O)(=O)n1ccc2cnc(Nc3ccc4c(c3)CCC(=O)N4)nc21 [Example 115],,< 0.02,< 0.02
O=S(=O)(c1cccc2cccnc12)n1ccc2cnc(Nc3ccc(N4CCNCC4)c(F)c3)cc21 [Example 323],,< 0.02,< 0.02
O=S(=O)(c1cccc2cccnc12)n1ccc2cnc(Nc3ccc(N4CCOCC4)cc3)nc21 [Example 389],,< 0.02,< 0.02
O=S(=O)(c1cccc2cccnc12)n1ccc2cnc(Nc3ccc(N4CCNCC4)cc3)cc21 [Example 321],,< 0.02,< 0.02
CN(c1ncccc1Cn1ccc2cnc(Nc3ccc4c(c3)C(C)(C)CC(=O)N4)nc21)S(C)(=O)=O [Example 211],,< 0.02,< 0.02
C[C@H]1CN(c2ccc(Nc3ncc4ccn(S(=O)(=O)c5cccc6cccnc56)c4n3)cc2)CCN1 [Example 230],,< 0.02,< 0.02
CN1CCN(c2ccc(Nc3cc4c(ccn4S(=O)(=O)c4cccc5cccnc45)cn3)cc2)CC1 [Example 353],,< 0.02,< 0.02
